In US5386832A, “Liver function breath test using aromatic amino acids” (New England Deaconess Hospital, priority 1993, dated 1995):
Several values for one entry are separate records, joined by “and”; a condition that tells them apart may be missing. Equal entries are not always repeated.

Test system: liver function
Experiment: breath test: oral 13C-phenylalanine, labeled CO2 in expired breath
Type: in vivo, patient
Details: 100 mg oral; for maximum percent dose oxidized within 10 minutes / cumulative percent dose oxidized: group mean; for cumulative percent dose oxidized: 1 hr; for Max. % Dose Oxidized/10 min. / Cumulative 1 hr % Dose Oxidized: overnight fast; for Max. % Dose Oxidized/10 min.: breath every ten minutes for one hour; for Cumulative 1 hr % Dose Oxidized: over one hour
Excerpt: All of the participants in the test are first required to fast overnight. This minimizes metabolic effects of meal absorption and the contribution of endogenous label appearing in the breath from natural levels of the endogenous isotope in the diet. While the preferred isotope for use in the test is ^13 C, other carbon isotopes (or even nitrogen isotopes) could be used. At least two baseline breath samples are collected and the mean isotope value in these samples is used as a background. This background is subtracted from the ^13 C levels determined following isotopic administration in order to obtain the change in ^13 C level.
All breath samples, both those collected prior to administration of the isotope and those after administration, are collected with a commercially available breath sampler such as a Quintron AlveoSampler. These samplers have a mouthpiece and a collection bag with a one-way valve there between. The breath samples are trapped in a syringe and the contents of the syringe are injected into a […] evacuation tube such as a Exetainer tube.
In the preferred mode of the invention, ^13 C-phenylalanine is used as the isotope tracer. One hundred mg doses of L-1-^13 C-phenylalanine are dissolved in 50 ml of water and the dose is administered orally. The dose bottle is washed with another 50ml of water and the wash is administered to the patient to make sure that all the phenylalanine was released from the dose bottle. Although intravenous or intramuscular administration of the isotope tracer could be used, the oral dose acts sufficiently and is much easier to administer.
Breath samples are collected every ten minutes for one hour after dosage. The amount of labeled isotope is measured using an isotope ratio mass spectrometer such a Europa Scientific Gas Isotope Ratio Mass Spectrometer (Europa Scientific, Inc., Cincinnati, Ohio). The ratio of ^13 C-CO2 to ^12 C-CO2 (mass ratio 45:44) is measured and compared to a reference CO2 tank. The reference CO2 is calibrated to the international PDB standard and the amount of labeled ^13 C is determined by the following formula
The mean Atom % ^13 C values are subtracted to determine the Atom % Excess ^13 C. The % Dose Oxid (or percent dose oxidized) is calculated from formulas 2 and 3.
Total ^13 C Excreted[…]%^13 C(from AUC)×5×(time in
min.)×Body Surface Area (m^2) (2)
% Dose Oxid=Total ^13 C Excreted/Dose (mmoles)×100% (3)
Two groups of subjects were used to test the efficacy of the present system. The first group contained 16 normal subjects while the second had 12 patients with various levels of liver disease.

[1] = 12 patients with liver disease, P<0.05 vs control
[2] = control group, 16 normal subjects, P<0.05 vs patients
[3] = individual control (normal) subjects 1-16
[4] = individual patients 17-28 with liver disease

N[C@@H](Cc1ccccc1)[13C](=O)O [L-1-^13 C-phenylalanine]
maximum percent dose oxidized within 10 minutes [1]: 0.50±0.27%
cumulative percent dose oxidized [1]: 1.82±0.93%
maximum percent dose oxidized within 10 minutes [2]: 2.15±0.84%
cumulative percent dose oxidized [2]: 7.62±2.87%
Max. % Dose Oxidized/10 min. [3]: 2.46% and 4.53% and 1.48% and 1.57% and 2.81% and 2.82% and 1.20% and 2.31% and 1.05% and 1.65% and 2.19% and 2.37% and 2.60% and 2.11% and 1.75%
Cumulative 1 hr % Dose Oxidized [3]: 8.56% and 15.53% and 3.96% and 6.52% and 7.14% and 9.86% and 11.12% and 3.78% and 7.34% and 4.44% and 6.21% and 7.78% and 7.71% and 7.50% and 7.57% and 6.83%
Max. % Dose Oxidized/10 min. [4]: 0.43% and 0.62% and 0.36% and 0.93% and 0.49% and 0.17% and 0.38% and 0.58% and 1.09% and 0.46%
Cumulative 1 hr % Dose Oxidized [4]: 2.16% and 2.81% and 1.25% and 2.00% and 1.59% and 0.51% and 1.29% and 1.46% and 0.61% and 2.22% and 3.88% and 2.02%
